Results taken from ChEMBL document CHEMBL1133521, “Multiple-conformation and protonation-state representation in 4D-QSAR: the neurokinin-1 receptor system” (J Med Chem, 2000).
pIC50: −log10 of the molar value.

The molecules below were run against Substance-P receptor (Homo sapiens, UniProt P25103) (assay: Inhibitory activity against Tachykinin receptor 1).
Substance-P receptor, sequence (P25103 whole entry): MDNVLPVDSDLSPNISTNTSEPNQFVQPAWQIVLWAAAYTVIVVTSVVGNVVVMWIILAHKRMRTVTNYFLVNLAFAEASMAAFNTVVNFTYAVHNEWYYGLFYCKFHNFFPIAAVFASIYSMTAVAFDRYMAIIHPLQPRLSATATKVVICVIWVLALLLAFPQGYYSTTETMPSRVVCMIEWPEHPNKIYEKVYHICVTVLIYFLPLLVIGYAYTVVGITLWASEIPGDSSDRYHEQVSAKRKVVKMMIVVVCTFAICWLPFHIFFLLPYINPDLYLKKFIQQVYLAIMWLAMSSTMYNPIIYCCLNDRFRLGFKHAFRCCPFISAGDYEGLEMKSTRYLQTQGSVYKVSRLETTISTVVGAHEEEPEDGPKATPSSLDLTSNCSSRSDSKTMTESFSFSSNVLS
COc1ccccc1C(CNC(=O)Cc1cc(C)cc(C)c1)N1CCN(C2CCCCC2)CC1 (stereo unspecified) was tested, and the pIC50 was 7.82. With O=C(Cc1cc(C(F)(F)F)cc(C(F)(F)F)c1)NCC(c1cccc2ccccc12)N1CCN(C2CCCCC2)CC1 (stereo unspecified) the pIC50 was 8.55. With O=C(Cc1cc(C(F)(F)F)cc(C(F)(F)F)c1)NCC(c1ccc(F)c(Cl)c1)N1CCC(N2CCCCC2)CC1 (stereo unspecified) the pIC50 was 8.54. With COc1ccc(C(CNC(=O)Cc2cc(C(F)(F)F)cc(C(F)(F)F)c2)N2CCC(N3CCCCC3)CC2)c(OC)c1OC (stereo unspecified) the pIC50 was 6.68. CN(CC(c1ccc(F)cc1Cl)N1CCC(N2CCCCC2)CC1)C(=O)Cc1cc(C(F)(F)F)cc(C(F)(F)F)c1 (stereo unspecified) was tested, and the pIC50 was 8.82. In the case of O=C(Cc1cc(C(F)(F)F)cc(C(F)(F)F)c1)NCC(c1ccccc1)N1CCC(N2CCCCC2)CC1 (stereo unspecified), the pIC50 was 8.27. CN(CC(c1ccc(Cl)c(Cl)c1)N1CCC(N2CCCCC2)CC1)C(=O)Cc1cc(C(F)(F)F)cc(C(F)(F)F)c1 (stereo unspecified) gave a pIC50 of 8.64. Molecule CN(CC(c1ccc(F)c(F)c1F)N1CCC(N2CCCCC2)CC1)C(=O)Cc1cc(C(F)(F)F)cc(C(F)(F)F)c1 (stereo unspecified) has a pIC50 of 8.74. CC(C)N1CCN(C(CN(C)C(=O)Cc2cc(C(F)(F)F)cc(C(F)(F)F)c2)c2cccc3c2OCO3)CC1 (stereo unspecified) gave a pIC50 of 8.85. For O=C(Cc1cc(C(F)(F)F)cc(C(F)(F)F)c1)NCC(c1ccc2c(c1)OCCO2)N1CCC(N2CCCCC2)CC1 (stereo unspecified), the pIC50 was 6.85. With O=C(Cc1cc(C(F)(F)F)cc(C(F)(F)F)c1)NCC(C(c1ccccc1)c1ccccc1)N1CCC(N2CCCCC2)CC1 (stereo unspecified) the pIC50 was 6.89. CN(CC(c1ccc(F)c(Cl)c1)N1CCC(N2CCCCC2)CC1)C(=O)Cc1cc(C(F)(F)F)cc(C(F)(F)F)c1 (stereo unspecified) gave a pIC50 of 8.77. COc1ccccc1C(CNC(=O)Cc1cc(C)cc(C)c1)N1CCC(N2CCCCC2)CC1 (stereo unspecified) gave a pIC50 of 7.21. For COc1ccccc1C(CNC(=O)Cc1cc(C(F)(F)F)cc(C(F)(F)F)c1)N1CCC(O)(c2ccccc2)CC1 (stereo unspecified), the pIC50 was 6.89. Molecule O=C(Cc1cc(C(F)(F)F)cc(C(F)(F)F)c1)NCC(c1cccc2ccccc12)N1CCC(N2CCCCC2)CC1 (stereo unspecified) has a pIC50 of 7.85. Molecule O=C(Cc1cc(C(F)(F)F)cc(C(F)(F)F)c1)NCC(c1ccccc1Br)N1CCC(N2CCCCC2)CC1 (stereo unspecified) has a pIC50 of 9.06. Molecule COc1ccc(CC(=O)NCC(c2ccccc2OC)N2CCN(C3CCCCC3)CC2)cc1 (stereo unspecified) has a pIC50 of 5.66. Work on COc1ccccc1C(CNC(=O)Cc1ccc(Cl)cc1)N1CCN(C2CCCCC2)CC1 (stereo unspecified) yielded a pIC50 of 6.07. Molecule CC(C)C1CCN(C2CCN(C(CN(C)C(=O)Cc3cc(C(F)(F)F)cc(C(F)(F)F)c3)c3ccc(Cl)c(Cl)c3)CC2)CC1 (stereo unspecified) has a pIC50 of 7.82. COc1ccc(C(CN(C)C(=O)Cc2cc(C(F)(F)F)cc(C(F)(F)F)c2)N2CCC(N3CCCCC3)CC2)c(OC)c1OC (stereo unspecified) gave a pIC50 of 7.92. For CN(CC(Cc1ccccc1)N1CCC(N2CCCCC2)CC1)C(=O)Cc1cc(C(F)(F)F)cc(C(F)(F)F)c1 (stereo unspecified), the pIC50 was 7.49. Work on Cc1c(F)cccc1C(CNC(=O)Cc1cc(C(F)(F)F)cc(C(F)(F)F)c1)N1CCC(N2CCCCC2)CC1 (stereo unspecified) yielded a pIC50 of 8.52. O=C(Cc1cc(C(F)(F)F)cc(C(F)(F)F)c1)NCC(c1ccc(F)cc1Cl)N1CCC(N2CCCCC2)CC1 (stereo unspecified) showed a pIC50 of 8.77. For CC(C)N1CCN(C(CNC(=O)Cc2cc(C(F)(F)F)cc(C(F)(F)F)c2)c2cccc3c2OCO3)CC1 (stereo unspecified), the pIC50 was 8.16. In the case of CN(CC(c1cccc2c1OCO2)N1CCN(C2CCCCC2)CC1)C(=O)Cc1cc(C(F)(F)F)cc(C(F)(F)F)c1 (stereo unspecified), the pIC50 was 8.89. O=C(Cc1cc(C(F)(F)F)cc(C(F)(F)F)c1)NCC(c1cccc2c1OCO2)N1CCN(C2CCCCC2)CC1 (stereo unspecified) showed a pIC50 of 8.80. COc1ccccc1CC(=O)N(C)CC(c1cccc2c1OCO2)N1CCC(N2CCCCC2)CC1 (stereo unspecified) showed a pIC50 of 7.80. COc1ccccc1C(CNC(=O)Cc1ccc(Cl)c(Cl)c1)N1CCN(C2CCCCC2)CC1 (stereo unspecified) gave a pIC50 of 6.55. Molecule O=C(Cc1cc(C(F)(F)F)cc(C(F)(F)F)c1)NCC(c1ccc(Cl)c(Cl)c1)N1CCC(N2CCCCC2)CC1 (stereo unspecified) has a pIC50 of 9.12. For CN(CC(c1ccc2c(c1)OCO2)N1CCC(N2CCCCC2)CC1)C(=O)Cc1cc(C(F)(F)F)cc(C(F)(F)F)c1 (stereo unspecified), the pIC50 was 8.32. CN(CC(c1ccc2c(c1)OCCO2)N1CCC(N2CCCCC2)CC1)C(=O)Cc1cc(C(F)(F)F)cc(C(F)(F)F)c1 (stereo unspecified) was tested, and the pIC50 was 8.05. Work on COc1cccc(C(CNC(=O)Cc2cc(C(F)(F)F)cc(C(F)(F)F)c2)N2CCC(N3CCCCC3)CC2)c1OC (stereo unspecified) yielded a pIC50 of 8.12. With O=C(Cc1cc(C(F)(F)F)cc(C(F)(F)F)c1)NCC(Cc1ccccc1)N1CCC(N2CCCCC2)CC1 (stereo unspecified) the pIC50 was 7.09. Work on CN(CC(c1cccc2c1OCO2)N1CCC(N2CCCCC2)CC1)C(=O)Cc1cc(C(F)(F)F)cc(C(F)(F)F)c1 (stereo unspecified) yielded a pIC50 of 8.74. For COc1ccccc1C(CNC(=O)Cc1ccccc1C(F)(F)F)N1CCN(C2CCCCC2)CC1 (stereo unspecified), the pIC50 was 6.57. Molecule O=C(Cc1cc(C(F)(F)F)cc(C(F)(F)F)c1)NCC(c1cccc(C(F)(F)F)c1F)N1CCC(N2CCCCC2)CC1 (stereo unspecified) has a pIC50 of 8.77. CC(C)Oc1cccc(CC(=O)NCC(c2ccc(Cl)c(Cl)c2)N2CCC(N3CCCCC3)CC2)c1 (stereo unspecified) showed a pIC50 of 8.30. For CN(CC(c1cc(Cl)cc(Cl)c1Cl)N1CCC(N2CCCCC2)CC1)C(=O)Cc1cc(C(F)(F)F)cc(C(F)(F)F)c1 (stereo unspecified), the pIC50 was 8.52. O=C(Cc1cc(C(F)(F)F)cc(C(F)(F)F)c1)NCC(c1cc(Cl)cc(Cl)c1Cl)N1CCC(N2CCCCC2)CC1 (stereo unspecified) showed a pIC50 of 8.19. Work on Cc1cc(C)cc(CC(=O)N(C)CC(c2cccc3c2OCO3)N2CCC(N3CCCCC3)CC2)c1 (stereo unspecified) yielded a pIC50 of 8.54. Work on O=C(Cc1cc(C(F)(F)F)cc(C(F)(F)F)c1)NCC(c1ccc(Cl)c(Cl)c1)N1CCC(N(CCO)CCO)CC1 (stereo unspecified) yielded a pIC50 of 8.28. Cc1c(F)cccc1C(CN(C)C(=O)Cc1cc(C(F)(F)F)cc(C(F)(F)F)c1)N1CCC(N2CCCCC2)CC1 (stereo unspecified) gave a pIC50 of 8.85. Molecule COc1cccc(C(CN(C)C(=O)Cc2cc(C(F)(F)F)cc(C(F)(F)F)c2)N2CCC(N3CCCCC3)CC2)c1OC (stereo unspecified) has a pIC50 of 8.00. For COc1cccc(C(CNC(=O)Cc2cc(C(F)(F)F)cc(C(F)(F)F)c2)N2CCC(N3CCCCC3)CC2)c1 (stereo unspecified), the pIC50 was 8.82. COc1ccccc1C(CNC(=O)Cc1cccc(OC(C)C)c1)N1CCN(C2CCCCC2)CC1 (stereo unspecified) showed a pIC50 of 6.89. O=C(Cc1cc(C(F)(F)F)cc(C(F)(F)F)c1)N1CCCCC1C(CN1CCC(N2CCCCC2)CC1)c1ccccc1 (stereo unspecified) gave a pIC50 of 5.82. For COc1cc(C(=O)N(C)CC(c2cccc3c2OCO3)N2CCC(N3CCCCC3)CC2)cc(OC)c1OC (stereo unspecified), the pIC50 was 7.43. For COc1ccccc1C(C1CCCCN1C(=O)Cc1cc(C(F)(F)F)cc(C(F)(F)F)c1)N1CCC(N2CCCCC2)CC1 (stereo unspecified), the pIC50 was 8.37. For CN(CC(c1ccccc1)N1CCN(C2CCCCC2)CC1)C(=O)Cc1cc(C(F)(F)F)cc(C(F)(F)F)c1 (stereo unspecified), the pIC50 was 8.70. O=C(Cc1cc(C(F)(F)F)cc(C(F)(F)F)c1)NCC(c1cccc(F)c1)N1CCC(N2CCCCC2)CC1 (stereo unspecified) was tested, and the pIC50 was 8.34. Work on CN(CCc1cc(C(F)(F)F)cc(C(F)(F)F)c1)C(=O)C(Cc1c[nH]c2ccccc12)N1CCN(C2CCCCC2)CC1 (stereo unspecified) yielded a pIC50 of 7.92. COc1ccc(OC)c(C(CNC(=O)Cc2cc(C(F)(F)F)cc(C(F)(F)F)c2)N2CCC(N3CCCCC3)CC2)c1 (stereo unspecified) was tested, and the pIC50 was 6.96. CN(CC(c1cccc(C(F)(F)F)c1F)N1CCC(N2CCCCC2)CC1)C(=O)Cc1cc(C(F)(F)F)cc(C(F)(F)F)c1 (stereo unspecified) showed a pIC50 of 8.85. CN(CC(c1ccccc1Br)N1CCC(N2CCCCC2)CC1)C(=O)Cc1cc(C(F)(F)F)cc(C(F)(F)F)c1 (stereo unspecified) showed a pIC50 of 8.96. CN(CC(c1cccc2c1OCO2)N1CCC(N2CCCCC2)CC1)C(=O)C(c1ccccc1)c1ccccc1 (stereo unspecified) gave a pIC50 of 7.66. Molecule COc1ccccc1C(CNC(=O)Cc1cc(C(F)(F)F)cc(C(F)(F)F)c1)N1CCN(C2Cc3ccccc3C2)CC1 (stereo unspecified) has a pIC50 of 8.14. In the case of COc1ccccc1C(CNC(=O)Cc1cc(C(F)(F)F)cc(C(F)(F)F)c1)N1CCCCC1 (stereo unspecified), the pIC50 was 6.60. For CN(CC(c1cccc2c1OCO2)N1CCC(N2CCCCC2)CC1)C(=O)Cc1ccccc1Br (stereo unspecified), the pIC50 was 8.22. Molecule CN(CC(c1cccc2c1OCO2)N1CCC(N2CCCCC2)CC1)C(=O)Cc1ccccc1Cl (stereo unspecified) has a pIC50 of 7.92. Molecule O=C(Cc1cc(C(F)(F)F)cc(C(F)(F)F)c1)NCC(c1ccc(F)c(F)c1)N1CCC(N2CCCCC2)CC1 (stereo unspecified) has a pIC50 of 8.48. Work on COc1ccccc1C(CNC(=O)Cc1cc(C(F)(F)F)cc(C(F)(F)F)c1)N1CCC(N2CCCCC2)CC1 (stereo unspecified) yielded a pIC50 of 8.62.
